Reference: patent US11214803B2, “Modulators of YAP1 expression” (Ionis Pharmaceuticals, Inc., priority 2019, dated 2022)
Strand notation (5' to 3'): a small letter for the sugar, then the base; units joined by * are phosphorothioate-linked, units joined directly phosphodiester-linked; [ ] holds rarer units or linkages, { } end groups; capitals alone tell only the bases. k = constrained ethyl (cEt); [5mC] = 5-methylcytosine; d = 2'-deoxy (DNA)

Tests used:
Yap1 mRNA [1] = experiment: Antisense inhibition of human Yap1 in A-431 cells by cEt gapmers, single dose (Example 3, RTS36584); format: cell-based
Summary of the method: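 Read-out is Yap1 mRNA as percent of untreated control, by quantitative RT-PCR normalized to total RNA (RiboGreen). Cells (A-431) received 2,000 nM of 3-10-3 cEt phosphorothioate gapmer via free uptake for roughly 48 hours.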

Yap1 mRNA [2] = experiment: Dose-dependent inhibition of human Yap1 in A-431 cells (Example 8, 10,000 cells per well, RTS4814); format: cell-based; details: for % UTC (Yap1 mRNA) / IC50: A-431 cells; for Yap1 mRNA, % UTC: A-431 cells, 10,000 cells per well
Summary of the method: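 A-431 cells (10,000/well) dosed with modified oligonucleotides by free uptake; Yap1 mRNA measured ~48 h later with primer-probe set RTS4814, normalized to total RNA (RIBOGREEN). Values are % of untreated control; IC50 from linear regression on log/linear plot.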

[3] = Table 35, Yap1 mRNA as percent of untreated control, 3-10-3 cEt gapmers targeting SEQ ID NO: 1 and 2, single dose
[4] = 31.3 nM, free uptake, approximately 48 hours, RTS4814
[5] = 125.0 nM, free uptake, approximately 48 hours, RTS4814
[6] = 500.0 nM, free uptake, approximately 48 hours, RTS4814
[7] = 2000.00 nM, free uptake, approximately 48 hours, RTS4814
[8] = free uptake, approximately 48 hours, RTS4814, linear regression on log/linear plot
[9] = Table 26, Yap1 mRNA by 3-10-3 cEt gapmers targeting SEQ ID NO.: 1, and 2, percent of untreated control
[10] = Table 28, Yap1 mRNA as percent of untreated control, 3-10-3 cEt gapmers targeting SEQ ID NO.: 1, and 2

1075797 (kG*kA*kT*dA*dA*dT*d[5mC]*dA*dT*dG*dA*dT*dA*k[5mC]*kT*k[5mC]; antisense) [compound 1075797]
YAP1 (% UTC) (Yap1 mRNA [1]; [3]): 3 % UTC
% UTC (Yap1 mRNA) (Yap1 mRNA [2]; 31.3 nM): 43 % UTC
% UTC (Yap1 mRNA) (Yap1 mRNA [2]; 125.0 nM): 11 % UTC
% UTC (Yap1 mRNA) (Yap1 mRNA [2]; 500.0 nM): 4 % UTC
% UTC (Yap1 mRNA) (Yap1 mRNA [2]; 2000.00 nM): 3 % UTC
IC50 (Yap1 mRNA [2]; Yap1 mRNA): < 0.02 µM

1076461 (kG*kA*kT*dT*dA*dA*dT*dA*dT*dA*dG*d[5mC]*d[5mC]*k[5mC]*k[5mC]*kT; antisense) [compound 1076461]
YAP1 (% UTC) (Yap1 mRNA [1]; Table 27, Yap1 mRNA by 3-10-3 cEt gapmers targeting SEQ ID NO.: 1, and 2, percent of untreated control): 3 % UTC
Yap1 mRNA, % UTC (Yap1 mRNA [2]; [4]): 65 % UTC
Yap1 mRNA, % UTC (Yap1 mRNA [2]; [5]): 24 % UTC
Yap1 mRNA, % UTC (Yap1 mRNA [2]; [6]): 7 % UTC
Yap1 mRNA, % UTC (Yap1 mRNA [2]; [7]): 3 % UTC
IC50 (Yap1 mRNA [2]; [8]): 0.04 µM

1075061 (antisense k[5mC]*k[5mC]*kT*dT*dA*dT*dA*d[5mC]*dT*dT*dT*dT*dA*kG*k[5mC]*k[5mC]) [compound 1075061]
YAP1 (% UTC) (Yap1 mRNA [1]; [3]): 5 % UTC
% UTC (Yap1 mRNA) (Yap1 mRNA [2]; 31.3 nM): 58 % UTC
% UTC (Yap1 mRNA) (Yap1 mRNA [2]; 125.0 nM): 23 % UTC
% UTC (Yap1 mRNA) (Yap1 mRNA [2]; 500.0 nM): 9 % UTC
% UTC (Yap1 mRNA) (Yap1 mRNA [2]; 2000.00 nM): 6 % UTC
IC50 (Yap1 mRNA [2]; Yap1 mRNA): < 0.02 µM

1074447 (kA*kA*kT*dG*dA*dT*dA*dG*d[5mC]*dA*d[5mC]*dT*dA*kG*kG*kA; antisense) [compound 1074447]
YAP1 (% UTC) (Yap1 mRNA [1]; Table 29, Yap1 mRNA as percent of untreated control, 3-10-3 cEt gapmers targeting SEQ ID NO.: 1, and 2): 4 % UTC
Yap1 mRNA, % UTC (Yap1 mRNA [2]; [4]): 47 % UTC
Yap1 mRNA, % UTC (Yap1 mRNA [2]; [5]): 20 % UTC
Yap1 mRNA, % UTC (Yap1 mRNA [2]; [6]): 8 % UTC
Yap1 mRNA, % UTC (Yap1 mRNA [2]; [7]): 5 % UTC
IC50 (Yap1 mRNA [2]; [8]): < 0.02 µM

1074549 (DNA kT*kA*kT*d[5mC]*dT*dA*d[5mC]*d[5mC]*dG*dT*dA*dT*dG*k[5mC]*k[5mC]*k[5mC]; antisense) [compound 1074549]
YAP1 (% UTC) (Yap1 mRNA [1]; [3]): 6 % UTC
% UTC (Yap1 mRNA) (Yap1 mRNA [2]; 31.3 nM): 67 % UTC
% UTC (Yap1 mRNA) (Yap1 mRNA [2]; 125.0 nM): 31 % UTC
% UTC (Yap1 mRNA) (Yap1 mRNA [2]; 500.0 nM): 12 % UTC
% UTC (Yap1 mRNA) (Yap1 mRNA [2]; 2000.00 nM): 7 % UTC
IC50 (Yap1 mRNA [2]; Yap1 mRNA): 0.1 µM

1075893 (antisense k[5mC]*kG*kT*dG*dA*dA*dA*dA*dA*dG*dA*dT*dG*kT*kG*kG) [compound 1075893]
YAP1 (% UTC) (Yap1 mRNA [1]; [3]): 7 % UTC
% UTC (Yap1 mRNA) (Yap1 mRNA [2]; 31.3 nM): 80 % UTC
% UTC (Yap1 mRNA) (Yap1 mRNA [2]; 125.0 nM): 29 % UTC
% UTC (Yap1 mRNA) (Yap1 mRNA [2]; 500.0 nM): 11 % UTC
% UTC (Yap1 mRNA) (Yap1 mRNA [2]; 2000.00 nM): 8 % UTC
IC50 (Yap1 mRNA [2]; Yap1 mRNA): 0.1 µM

1075052 (antisense kA*kT*kA*dT*dA*dT*dA*d[5mC]*dT*dT*dG*dA*dT*k[5mC]*k[5mC]*kA) [compound 1075052]
YAP1 (% UTC) (Yap1 mRNA [1]; [9]): 3 % UTC
Yap1 mRNA, % UTC (Yap1 mRNA [2]; [4]): 40 % UTC
Yap1 mRNA, % UTC (Yap1 mRNA [2]; [5]): 10 % UTC
Yap1 mRNA, % UTC (Yap1 mRNA [2]; [6]): 4 % UTC
Yap1 mRNA, % UTC (Yap1 mRNA [2]; [7]): 4 % UTC
IC50 (Yap1 mRNA [2]; [8]): < 0.02 µM

1074222 (antisense kA*kG*kG*dA*dA*dT*dG*dA*dG*d[5mC]*dT*d[5mC]*dG*kA*kA*k[5mC]) [compound 1074222]
YAP1 (% UTC) (Yap1 mRNA [1]; [10]): 5 % UTC
Yap1 mRNA, % UTC (Yap1 mRNA [2]; [4]): 59 % UTC
Yap1 mRNA, % UTC (Yap1 mRNA [2]; [5]): 21 % UTC
Yap1 mRNA, % UTC (Yap1 mRNA [2]; [6]): 8 % UTC
Yap1 mRNA, % UTC (Yap1 mRNA [2]; [7]): 5 % UTC
IC50 (Yap1 mRNA [2]; [8]): < 0.02 µM

1074548 (kA*kT*k[5mC]*dT*dA*d[5mC]*d[5mC]*dG*dT*dA*dT*dG*d[5mC]*k[5mC]*k[5mC]*kA; antisense) [compound 1074548]
YAP1 (% UTC) (Yap1 mRNA [1]; Table 34, Yap1 mRNA as percent of untreated control, 3-10-3 cEt gapmers targeting SEQ ID NO: 1 and 2, single dose): 4 % UTC
% UTC (Yap1 mRNA) (Yap1 mRNA [2]; 31.3 nM): 50 % UTC
% UTC (Yap1 mRNA) (Yap1 mRNA [2]; 125.0 nM): 15 % UTC
% UTC (Yap1 mRNA) (Yap1 mRNA [2]; 500.0 nM): 7 % UTC
% UTC (Yap1 mRNA) (Yap1 mRNA [2]; 2000.00 nM): 8 % UTC
IC50 (Yap1 mRNA [2]; Yap1 mRNA): < 0.02 µM

1076460 (kT*kA*kA*dT*dA*dT*dA*dG*d[5mC]*d[5mC]*d[5mC]*d[5mC]*dT*kT*k[5mC]*kA; antisense) [compound 1076460]
YAP1 (% UTC) (Yap1 mRNA [1]; [9]): 7 % UTC
Yap1 mRNA, % UTC (Yap1 mRNA [2]; [4]): 79 % UTC
Yap1 mRNA, % UTC (Yap1 mRNA [2]; [5]): 53 % UTC
Yap1 mRNA, % UTC (Yap1 mRNA [2]; [6]): 25 % UTC
Yap1 mRNA, % UTC (Yap1 mRNA [2]; [7]): 12 % UTC
IC50 (Yap1 mRNA [2]; [8]): 0.2 µM

1076494 (k[5mC]*kT*kA*dA*dT*dT*dG*dA*dA*dG*d[5mC]*dT*dG*kG*k[5mC]*kA; antisense) [compound 1076494]
YAP1 (% UTC) (Yap1 mRNA [1]; [10]): 3 % UTC
Yap1 mRNA, % UTC (Yap1 mRNA [2]; [4]): 34 % UTC
Yap1 mRNA, % UTC (Yap1 mRNA [2]; [5]): 7 % UTC
Yap1 mRNA, % UTC (Yap1 mRNA [2]; [6]): 3 % UTC
Yap1 mRNA, % UTC (Yap1 mRNA [2]; [7]): 2 % UTC
IC50 (Yap1 mRNA [2]; [8]): < 0.02 µM
